Values quoted from earlier work, collected in US12391711B2 (priority 2020, dated 2025).

Conditions: human, Pain Res. Manag., 2005, 10: 15A-22A

With `CCCCCc1cc(O)c2c(c1)OC(C)(C)[C@@H]1CCC(C)=C[C@@H]21` [THC, (6aR,10aR)-6,6,9-trimethyl-3-pentyl-6a,7,8,10a-tetrahydro-6H-benzo[c]chromen-1-ol] as the compound, how does the oral bioavailability read?
The oral bioavailability was 4%-12%.
